Test results taken from patent EP0360850B1, “ANTIMICROBIAL AGENTS” (GIVAUDAN-ROURE (INTERNATIONAL) S.A., priority 1988, dated 1989).
Values after ≈ are worked out from the molar mass of the structure shown. Like-named read-outs stand apart in the source and are kept apart here.

Columns and labels:
Pseudomonas aeruginosa = test: Preservative test in cosmetic lotion, weekly reinoculation; format: cell-based
Description: (§1) a. Cutting Oil Emulsions. […] Various aliquots of a 6% solution of the test compound in ethanol were added to cutting oil emulsions prepared by diluting Kutwell® 30 cutting oil concentrate 1 to 30 with water. These samples were inoculated with a culture of Ps. aeruginosa and incubated at 28°C on a rotary shaker. At weekly intervals, the samples were examined for microorganisms and then reinoculated and incubated. […] Cosmetic compositions. […] Serial dilutions of the compounds in dimethylformamide were added to a prepared, sterile cosmetic lotion of the following composition:
(§2) Samples of the lotion containing varying levels of the acrylonitrile derivatives were divided into two portions; one portion was inoculated with a spore suspension of A. niger, and the other portion with a 24-hour nutrient broth culture of Ps. aeruginosa. These two organisms are frequently found as contaminants in cosmetic products. The samples were incubated for a 4-week period with weekly examinations for the growth of the organisms. At weekly intervals, the samples were also reinoculated with the test organisms. Presence of fungal growth was determined macroscopically while bacterial contamination was determined by streaking one 4-mm loopful (0.01ml) of the lotion onto the surface of trypticase glucose extract agar (Baltimore Biological Laboratories, Baltimore, MD) containing 0.005% triphenyl tetrazolium chloride and letheen antidote. Results of these tests showing the minimum inhibitory concentration through the 4-week incubation period are tabulated in Table IV and show, once again, that the compounds where R is methyl or ethyl show a broad spectrum activity for the preservation of cosmetic products against the type of fungus and bacterium most likely to cause problems in cosmetics.

Aspergillus niger = test: as above; format: cell-based; settings: A.n.
Description: as §1, §2

[1] = read-out: Minimum Inhibitory Concentration Week 1
[2] = read-out: Minimum Inhibitory Concentration Week 2
[3] = read-out: Minimum Inhibitory Concentration Week 3
[4] = read-out: Minimum Inhibitory Concentration Week 4
[5] = Week 1, read-out: Minimum Inhibitory Concentration Week 1
[6] = Week 2, weekly reinoculation, read-out: Minimum Inhibitory Concentration Week 2
[7] = Week 3, weekly reinoculation, read-out: Minimum Inhibitory Concentration Week 3
[8] = Week 4, weekly reinoculation, read-out: Minimum Inhibitory Concentration Week 4

| MIC (Pseudomonas aeruginosa; cosmetic lotion, P.a., Week 1, read-out: Minimum Inhibitory Concentration Week 1) | SMILES | MIC (Pseudomonas aeruginosa; [1]) | MIC (Pseudomonas aeruginosa; [2]) | MIC (Pseudomonas aeruginosa; [3]) | MIC (Pseudomonas aeruginosa; [4]) | MIC (Aspergillus niger; [5]) | MIC (Aspergillus niger; [6]) | MIC (Aspergillus niger; [7]) | MIC (Aspergillus niger; [8]) |
| --- | --- | --- | --- | --- | --- | --- | --- | --- | --- |
|  | CCSC=C(Br)C#N [Example 4, α-bromo-β-ethylthio-acrylonitrile] | 31 to 62 µg/mL (≈ 161 to 323 µM) | 31 to 62 µg/mL (≈ 161 to 323 µM) | 31 to 62 µg/mL (≈ 161 to 323 µM) | 31 to 62 µg/mL (≈ 161 to 323 µM) | < 7.8 µg/mL | < 7.8 µg/mL | < 7.8 µg/mL | < 7.8 µg/mL |
|  | CCCSC=C(Cl)C#N [Example 5] | > 2000 µg/mL | 1000 to 2000 µg/mL (≈ 6190 to 12400 µM) | 1000 to 2000 µg/mL (≈ 6190 to 12400 µM) | 500 to 1000 µg/mL (≈ 3090 to 6190 µM) | 125 to 250 µg/mL (≈ 773 to 1550 µM) | 125 to 250 µg/mL (≈ 773 to 1550 µM) | 125 to 250 µg/mL (≈ 773 to 1550 µM) | 125 to 250 µg/mL (≈ 773 to 1550 µM) |
|  | CCSC=C(Cl)C#N [Example 3, α-chloro-β-ethylthio-acrylonitrile] | 250 to 500 µg/mL (≈ 1690 to 3390 µM) | 125 to 250 µg/mL (≈ 847 to 1690 µM) | 125 to 250 µg/mL (≈ 847 to 1690 µM) | 125 to 250 µg/mL (≈ 847 to 1690 µM) | < 7.8 µg/mL | < 7.8 µg/mL | < 7.8 µg/mL | < 7.8 µg/mL |
|  | CSC=C(Br)C#N [Example 1, α-Bromo-β-methylthio-acrylonitrile] | < 7.8 µg/mL | < 7.8 µg/mL | < 7.8 µg/mL | < 7.8 µg/mL | < 7.8 µg/mL | < 7.8 µg/mL | < 7.8 µg/mL | < 7.8 µg/mL |
|  | CSC=C(Cl)C#N [Example 2, α-Chloro-β-methylthio-acrylonitrile] | 31 to 62 µg/mL (≈ 232 to 464 µM) | 15 to 31 µg/mL (≈ 112 to 232 µM) | 15 to 31 µg/mL (≈ 112 to 232 µM) | 15 to 31 µg/mL (≈ 112 to 232 µM) | < 7.8 µg/mL | < 7.8 µg/mL | < 7.8 µg/mL | < 7.8 µg/mL |
| > 2000 µg/mL | CCCCSC=C(Cl)C#N [Example 6] |  |  |  |  |  |  |  |  |
